Assay results taken from article PMC6934184, “Selective DNA-PKcs inhibition extends the therapeutic index of localized radiotherapy and chemotherapy” (The Journal of Clinical Investigation, 2019).

Molecular target: T1, CDK14 (PFTK1)/cyclin Y (Homo sapiens, UniProt O94921)
T1 construct: purchased Thermo Fisher Scientific (Life Technologies) SelectScreen
Assay: SelectScreen LanthaScreen
Type: binding
Conditions: 1 µM
Procedure, shortened: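 Percent values come from Thermo SelectScreen profiling of NU5455, combining activity and binding assays. CSF1R was run in Z'LYTE format at Km app ATP, and CAMK1 in Adapta format with ATP listed at 10.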

T1 sequence (O94921 whole entry): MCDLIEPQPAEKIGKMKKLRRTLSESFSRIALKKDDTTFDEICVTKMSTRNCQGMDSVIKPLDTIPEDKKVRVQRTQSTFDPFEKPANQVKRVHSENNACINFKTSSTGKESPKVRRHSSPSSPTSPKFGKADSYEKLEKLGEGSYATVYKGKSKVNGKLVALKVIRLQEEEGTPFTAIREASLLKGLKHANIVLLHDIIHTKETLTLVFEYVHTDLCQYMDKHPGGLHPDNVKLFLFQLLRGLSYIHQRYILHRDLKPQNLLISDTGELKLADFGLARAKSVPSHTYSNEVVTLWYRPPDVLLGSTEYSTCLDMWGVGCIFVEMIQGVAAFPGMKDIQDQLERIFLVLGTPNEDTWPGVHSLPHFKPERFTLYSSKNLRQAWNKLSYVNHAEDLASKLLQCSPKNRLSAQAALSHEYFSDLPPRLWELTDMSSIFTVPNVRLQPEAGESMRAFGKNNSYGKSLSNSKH
T1 sequence (Q8ND76 whole entry partner): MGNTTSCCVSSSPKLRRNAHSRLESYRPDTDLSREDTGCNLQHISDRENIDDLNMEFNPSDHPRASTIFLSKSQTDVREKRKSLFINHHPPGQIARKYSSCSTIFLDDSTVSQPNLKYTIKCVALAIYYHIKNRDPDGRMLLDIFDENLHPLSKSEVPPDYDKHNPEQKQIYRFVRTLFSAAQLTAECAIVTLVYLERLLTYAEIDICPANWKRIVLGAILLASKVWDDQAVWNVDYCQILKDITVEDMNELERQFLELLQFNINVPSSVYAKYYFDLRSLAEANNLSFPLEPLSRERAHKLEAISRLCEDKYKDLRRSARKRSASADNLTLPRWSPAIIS

CN(C(=O)CN1CCOCC1)c1ccc2sc3c(-c4cccc5c(=O)cc(N6CC7CCC(C6)O7)oc45)cccc3c2c1 [NU5455]
% displacement: 5.1%
